# Results reported in article PMC2760454 (Biochemistry, 2008).
# Like-named read-outs stand apart in the source and are kept apart here.
# How the values were obtained:
# [1] = target: T1, homoisocitrate dehydrogenase (HIcDH) (Saccharomyces cerevisiae, UniProt P40495); experiment: Product and dead-end inhibition studies of HIcDH in the absence of K+; format: biochemical; settings: NAD fixed at its Km
# [2] = target: T1, homoisocitrate dehydrogenase (HIcDH); experiment: HIcDH initial velocity studies; format: biochemical; settings: for Kact (activation constant): varied salt, MgHIc 4.2 µM, NAD 0.5 mM, fit to eq. 1
# [3] = target: T1, homoisocitrate dehydrogenase (HIcDH); experiment: pH dependence of HIcDH kinetic parameters and of the activation constant of K+; format: biochemical
# [4] = target: T1, homoisocitrate dehydrogenase (HIcDH); settings: in the presence of K+; cited from earlier work
# T1 sequence (P40495 23-371): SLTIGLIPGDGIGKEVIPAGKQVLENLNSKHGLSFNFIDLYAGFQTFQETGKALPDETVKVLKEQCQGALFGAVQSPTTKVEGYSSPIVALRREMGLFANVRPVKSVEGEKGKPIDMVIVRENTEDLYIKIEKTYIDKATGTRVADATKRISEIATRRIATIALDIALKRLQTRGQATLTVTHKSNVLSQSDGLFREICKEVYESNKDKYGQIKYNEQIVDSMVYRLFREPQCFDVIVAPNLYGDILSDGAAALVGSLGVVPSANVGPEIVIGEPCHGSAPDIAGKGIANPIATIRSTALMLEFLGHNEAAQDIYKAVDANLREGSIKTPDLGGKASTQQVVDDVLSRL
compound,measurement,setting,value
"O=C(O)CCC=C(C(=O)O)C(O)C(=O)O (stereo not drawn) [CPM, 3-Carboxypropylidenemalate]","inhibition constant, competitive versus MgHIc",[1],65 ± 7 ∝M
[Cl-].[K+] [KCl],fold increase in initial rate,"[2]; 200 mM KCl versus absence, reactants fixed at their Km values",13 fold
same,Kact (activation constant),[2],55 ± 20 mM
"CC(=O)[O-].[K+] [KOAc, Potassium acetate]",Ki fold higher than with KCl,[2]; KOAc versus KCl,5 fold
same,Kact (activation constant),[2],26 ± 4 mM
"[K+] [K^+, Potassium]",Kd,"[2]; read-out: KiK, NAD varied at fixed KOAc, MgHIc saturating (10Km), fit to eq. 5",43 ± 19 mM
same,"appKact, pH independent value","[3]; KOAc varied, NAD 0.4 mM, MgHIc 10Km, average of data above pH 7",about 13 mM
"NC(=O)c1ccc[n+]([C@@H]2O[C@H](COP(=O)([O-])OP(=O)(O)OC[C@H]3O[C@@H](n4cnc5c(N)ncnc54)[C@H](O)[C@@H]3O)[C@@H](O)[C@H]2O)c1 [NAD, nicotinamide adenine dinucleotide]",Kd,[2],77 ± 57 mM
same,KNAD,[2]; KCl 0 mM,9 ± 3 mM
same,KNAD,[2]; KCl 5 mM,1.6 ± 0.2 mM
same,KNAD,[2]; KCl 15 mM,1.3 ± 0.1 mM
same,KNAD,[2]; KCl 150 mM,0.8 ± 0.1 mM
same,KNAD,[2]; KCl 350 mM,0.9 ± 0.2 mM
same,KNAD,"[2]; Minus KOAc, pH 8.0, 25°C",9 ± 3 mM
same,V1/KNADEt,"[2]; Minus KOAc, pH 8.0, 25°C",(5 ± 1) × 10^2 M^−1·s^−1
same,KNAD,"[2]; NAD varied at fixed KOAc, MgHIc saturating (10Km), fit to eq. 5",0.3 ± 0.1 mM
same,KNAD,"[2]; Plus KOAc, pH 8.0, 25°C",0.3 ± 0.1 mM
same,V1/KNADEt,"[2]; Plus KOAc, pH 8.0, 25°C",(4 ± 1) × 10^4 M^−1·s^−1
same,"V/KNADEt, constant value at high pH","[3]; absence of K+, pH 8.5 to 9.7",about 123 ± 3 M^−1s^−1
"NC(=O)C1=CN([C@@H]2O[C@H](COP(=O)(O)OP(=O)(O)OC[C@H]3O[C@@H](n4cnc5c(N)ncnc54)[C@H](O)[C@@H]3O)[C@@H](O)[C@H]2O)C=CC1 [NADH, reduced nicotinamide adenine dinucleotide]",Ki,[4],0.3 mM
"C[N+](C)(C)C.[Cl-] [tetramethylammonium chloride, reference compound]",initial rate as % of that without KCl,"[2]; 200 mM, fixed concentrations of MgHIc and NAD",about 36%
